# What was measured:
# Assay in all cases: Minimum Inhibitory Concentration (MIC), agar dilution, standard strains
# [1] = test system: E. faecalis L239; assay type: cell-based; settings: Table 1; Mueller-Hinton agar, 37° C., 20 hours
# Experimental: (§1) Minimum Inhibitory Concentration (MIC)
# (§2) The effectiveness of the compound according to the present invention was determined by obtaining Minimum Inhibitory Concentration (MIC) of the compounds prepared by the above Examples (I-1 to I-33) and vancomycin, which is the known compound having a potent activity against gram-positive strains, as the control drug against the standard strains. Specifically, Minimum Inhibitory Concentration was obtained by diluting the test material with a double dilution method, dispersing them in Mueller-Hinton agar medium, inoculating each of the test strain having 10^7 cfu (colny forming unit) in an amount of 2:1 to the medium and then incubating them at 37° C. for 20 hours.
# [2] = test system: S. epidermidis R005; assay type: cell-based; settings: Mueller-Hinton agar, 37° C., 20 hours; for MIC: Staphylococcus epidermidis, R005, read-out: Minimum Inhibitory Concentration (MIC), S. epidermidis R005
# Experimental: as §1, §2
# [3] = test system: Staphylococcus aureus giorgio; assay type: cell-based; settings: Mueller-Hinton agar, 37° C., 20 hours; for Minimum Inhibitory Concentration (MIC), Staphylococcus aureus giorgio: Table 1; for Minimum Inhibitory Concentration (MIC), S. aureus giorgio: Table 2
# Experimental: as §1, §2
# [4] = test system: S. aureus 241; assay type: cell-based, Staphylococcus aureus; settings: Table 1; Mueller-Hinton agar, 37° C., 20 hours
# Experimental: as §1, §2
# [5] = test system: S. aureus 77; assay type: cell-based, Staphylococcus aureus; settings: Mueller-Hinton agar, 37° C., 20 hours; for MIC: Staphylococcus aureus, 77, read-out: Minimum Inhibitory Concentration (MIC), S. aureus 77
# Experimental: as §1, §2
# [6] = test system: E. faecalis EFS004; assay type: cell-based; settings: Table 2; Mueller-Hinton agar, 37° C., 20 hours
# Experimental: as §1, §2
# [7] = test system: S. aureus K311; assay type: cell-based, Staphylococcus aureus; settings: Table 2; Mueller-Hinton agar, 37° C., 20 hours
# Experimental: as §1, §2
Molecule,"Minimum Inhibitory Concentration (MIC), E. faecalis L239 [1]","Minimum Inhibitory Concentration (MIC), S. epidermidis R005 ([2]; Table 1)","Minimum Inhibitory Concentration (MIC), Staphylococcus aureus giorgio [3]","Minimum Inhibitory Concentration (MIC), S. aureus 241 [4]","Minimum Inhibitory Concentration (MIC), S. aureus 77 ([5]; Table 1)","Minimum Inhibitory Concentration (MIC), E. faecalis EFS004 [6]",MIC ([2]; Table 2) [µg/mL],"Minimum Inhibitory Concentration (MIC), S. aureus giorgio [3]","Minimum Inhibitory Concentration (MIC), S. aureus K311 [7]",MIC ([5]; Table 2) [µg/mL],"Minimum Inhibitory Concentration (MIC), S. epidermidis R005 ([2]; Table 2)","Minimum Inhibitory Concentration (MIC), S. aureus 77 ([5]; Table 2)"
"Cc1c(N)nc([S+]([O-])CSC2=C(C(=O)O)N3C(=O)[C@@H](NC(=O)CSc4cc(Cl)ccc4Cl)[C@H]3SC2)[n+](N)c1N (stereo partly drawn) [Example I-23, (6R,7R)-1,4,6-triamino-2-[({[(2-carboxy-7-({2-[(2,5-dichlorophenyl)sulfan-yl]acetyl}amino)-8-oxo-5-thia-1-azabicyclo[4.2.0]oct-2-en-3-yl)]sulfanyl}methyl)sulfin-yl]-5-methylpyri midin-1-ium]",16 :g/ml,8 :g/ml,0.5 :g/ml,>32 :g/ml,8 :g/ml,–,–,–,–,–,–,–
"Nc1cc(SCSC2=C(C(=O)O)N3C(=O)[C@@H](NC(=O)CSc4cc(Cl)nc(Cl)c4)[C@H]3SC2)nc(N)n1 [Example I-24, (6R,7R)-3-({[(2,6-diamino-4-pyrimidinyl)sulfanyl]methyl}sulfanyl)-7-({2-[(2,6-dichloro-4-pyridinyl)sulfanyl]acetyl}amino)-8-oxo-5-thia-1-azabicyclo[4.2.0]oct-2-ene-2-carboxylic acid]",–,–,–,–,–,0.5 :g/ml,0.25,0.016 :g/ml,0.5 :g/ml,0.25,–,–
"Nc1cc(N)nc(SCSC2=C(C(=O)O)N3C(=O)[C@@H](NC(=O)CSc4cc(Cl)nc(Cl)c4)[C@H]3SC2)n1 [Example I-25, (6R,7R)-3-({[(4,6-diamino-2-pyrimidinyl)sulfanyl]methyl}sulfanyl)-7-({2-[(2,6-dichloro-4-pyridinyl)sulfanyl]acetyl}amino)-8-oxo-5-thia-1-azabicyclo[4.2.0]oct-2-ene-2-carboxylic acid]",–,–,–,–,–,0.5 :g/ml,0.25,0.016 :g/ml,0.5 :g/ml,0.25,–,–
"Nc1nc(SCSC2=C(C(=O)O)N3C(=O)[C@@H](NC(=O)CSc4cc(Cl)nc(Cl)c4)[C@H]3SC2)nc2[nH]ncc12 [Example I-26, (6R,7R)-3-({[(4-amino-1H-pyrazolo[3 ,4-d]pyrimidin-6-yl)sulfanyl]methy-1}sulfanyl)-7-({2-[(2,6-dichloro-4-pyridinyl)sulfanyl]acetyl}amino)-8-oxo-5-thia-1-azabi-cyclo[4.2.0]oct-2-ene-2-carboxylic acid]",–,–,–,–,–,0.5 :g/ml,–,0.016 :g/ml,0.5 :g/ml,–,0.25 :g/ml,0.25 :g/ml
"O=C(CSc1cc(Cl)nc(Cl)c1)N[C@@H]1C(=O)N2C(C(=O)O)=C(SCSc3ncnc4[nH]ncc34)CS[C@H]12 [Example I-27, (6R,7R)-7-({2-[(2,6-dichloro-4-pyridinyl)sulfanyl]acetyl}amino)-8-oxo-3-{[(1H-pyrazolo[3,4-d]pyrimidin-4-yl-sulfanyl)methyl]sulfanyl}-5-thia-1-azabicyclo[4.2. 0]oct-2-ene-2-carboxylic acid]",–,–,–,–,–,0.5 :g/ml,0.25,0.13 :g/ml,0.5 :g/ml,0.25,–,–
"Nc1nc(O)cc(SCSC2=C(C(=O)O)N3C(=O)[C@@H](NC(=O)CSc4cc(Cl)nc(Cl)c4)[C@H]3SC2)n1 [Example I-28, (6R,7R)-3-({[(2-amino-6-hydroxy-4-pyrimidinyl)sulfanyl]methyl}sulfanyl)-7-({2-[(2,6-dic hloro-4-pyridinyl)sulfanyl]acetyl}amino)-8-oxo-5-thia-1-azabicyclo[4.2.0]-oct-2-ene-2-car boxylic acid]",–,–,–,–,–,1 :g/ml,0.25,0.031 :g/ml,0.5 :g/ml,0.25,–,–
"CCSc1nc(C)cc(SCSC2=C(C(=O)O)N3C(=O)[C@@H](NC(=O)CSc4cc(Cl)nc(Cl)c4)[C@H]3SC2)n1 [Example I-29, (6R,7R)-7-({2-[(2,6-dichloro-4-pyridinyl)sulfanyl]acetyl}amino)-3-[({[2-(ethylsulfanyl)-6-methyl-4-pyrimidinyl]sulfanyl)methyl]sulfanyl}-8-oxo-5-thia-1-azabicy-clo[4.2.0]oct-2-ene-2-carboxylic acid]",–,–,–,–,–,0.25 :g/ml,–,0.031 :g/ml,2 :g/ml,–,1 :g/ml,0.5 :g/ml
"Cn1c(N)n[n+]2c(SCSC3=C(C(=O)O)N4C(=O)[C@@H](NC(=O)CSc5cc(Cl)nc(Cl)c5)[C@H]4SC3)nc(N)cc12 [Example I-31, 2,7-diamino-5-[({[(6R,7R)-2-carboxy-7-({2-[(2,6-dichloro-4-pyridinyl)sulf-anyl]acetyl}amino)-8-oxo-5-thia-1-azabicyclo[4.2.0]oct-2-en-3-yl]sulfanyl}methyl)sulfan-yl]-1-methyl-1H-[1,2,4]triazolo[1,5-c]pyrimidin-4-ium]",–,–,–,–,–,0.5 :g/ml,–,0.031 :g/ml,0.5 :g/ml,–,0.25 :g/ml,0.25 :g/ml
"O=C(CSc1cc(Cl)nc(Cl)c1)N[C@@H]1C(=O)N2C(C(=O)O)=C(SCSc3nc(O)cc(NCCO)n3)CS[C@H]12 [Example I-32, (6R,7R)-7-({2-[(2,6-dichloro-4-pyridinyl)sulfanyl]acetyl}amino)-3-{[({4-hy-droxy-6-[(2-hydroxyethyl)amino]-2-pyrimidinyl}sulfanyl)methyl]sulfanyl}-8-oxo-5-thia-1-azabicyclo[4. 2.0]oct-2-ene-2-carboxylic acid]",–,–,–,–,–,1 :g/ml,–,0.13 :g/ml,1 :g/ml,–,1 :g/ml,0.1 :g/ml
"(6R,7R)-2,4-diamino-6-[({[2-carboxy-7-({2-[(2,5-dichlorophenyl)sulfany-1]acetyl}amino)-8-oxo-5-thia-1-azabicyclo[4.2.0]oct-2-en-3-yl]sulfanyl}methyl)sulfanyl]-1-ethyl-1,3,5-tria zine-1,3-diium [Example I-20]",0.5 :g/ml,0.5 :g/ml,<0.008 :g/ml,8 :g/ml,1 :g/ml,–,–,–,–,–,–,–
"(6R,7R)-2,4-diamino-6-[({[2-carboxy-7-({2-[(2,5-dichlorophenyl)sulfany-1]acetyl}amino)-8-oxo-5-thia-1-azabicyclo[4.2.0]oct-2-en-3-yl]sulfanyl}methyl)sulfanyl]-1-methylpyrimidi n-1-ium [Example I-15]",0.25 :g/ml,0.13 :g/ml,<0.008 :g/ml,1 :g/ml,0.13 :g/ml,–,–,–,–,–,–,–
